Data from patent publication US20210361598A1, “COMPOUNDS FOR PREVENTION AND TREATMENT OF POST-INTENSIVE CARE COGNITIVE DYSFUNCTION AND COGNITIVE DYSFUNCTION RESULTING FROM RESPIRATORY DISTRESS” (Abrexa Pharmaceuticals, Inc., priority 2020, published 2021).
“Also recorded” adds a separate entry of the source.

Experiments:
[1] = system: post-surgical cognitive dysfunction; conditions: cited from earlier work; for Effect on post-surgical cognitive dysfunction: literature reports, after surgery
[2] = system: neonatal hypoxic-ischemic brain injury in p10 C57BL6 mice; experiment: TTC staining infarct measurement in neonatal hypoxic-ischemic (HI) injury mouse model; format: in vivo
Description: (§1) Postnatal day 10 mice were subjected to the modified Vanucci-Rice model of neonatal hypoxic-ischemic injury (permanent right common carotid artery ligation followed by 8% oxygen/balance nitrogen exposure) and then treatment started the same day by daily oral gavage with J147 at 10 mg/kg/day for 2 weeks after injury. Infarction volume, performance on functional tests of coordination, locomotion and memory, markers of neurogenesis, and apoptotic cell death were measured. Hypoxic-ischemic (HI) injury and J147 treatment: To induce HI injury, permanent right common carotid artery ligation was performed in p10 C57BL6 mice followed by 8% oxygen/balance nitrogen exposure for 45 min at 37° C. hypoxic chamber. From the day of HI injury, either J147 (10 mg/kg/day) or vehicle (corn oil, same volume) were once daily administered through oral gavage for a period of two weeks. TTC staining: 24 h after HI injury, 2 mm coronal brain sections were immersed in 1% 2,3,5-Triphenyltetrazolium chloride (TTC) at 37° C. for 30 min. Images of individual sections were digitized and infarct area was measured with the ImageJ software. Injury volumes were calculated using [contralateral hemisphere volume-(ipsilateral hemisphere volume-lesion volume)]/contralateral hemisphere volume×100.

[3] = system: neonatal hypoxic-ischemic brain injury in p10 C57BL6 mice; experiment: Postmortem MRI volumetric measurement of lesion in neonatal HI mouse model; format: in vivo
Description: Postnatal day 10 mice were subjected to the modified Vanucci-Rice model of neonatal hypoxic-ischemic injury (permanent right common carotid artery ligation followed by 8% oxygen/balance nitrogen exposure) and then treatment started the same day by daily oral gavage with J147 at 10 mg/kg/day for 2 weeks after injury. Infarction volume, performance on functional tests of coordination, locomotion and memory, markers of neurogenesis, and apoptotic cell death were measured. Hypoxic-ischemic (HI) injury and J147 treatment: To induce HI injury, permanent right common carotid artery ligation was performed in p10 C57BL6 mice followed by 8% oxygen/balance nitrogen exposure for 45 min at 37° C. hypoxic chamber. From the day of HI injury, either J147 (10 mg/kg/day) or vehicle (corn oil, same volume) were once daily administered through oral gavage for a period of two weeks. Magnetic resonance imaging (MRI): […] A 3D rapid acquisition with refocused echoes sequence was used (TE/TR=40/2000 ms, RARE factor=8, 4 signal averages, FOV=16.0 mm×9.0 mm×18.0 mm, matrix size=128×72×144, native resolution≈125×125×125 um3, time=3 h). Volumetric measurements were performed using ROI editor software.

[4] = system: neonatal hypoxic-ischemic encephalopathy (HIE) in C57BL6 mice; experiment: TUNEL staining, dose dependency of apoptotic cell death in dentate gyrus, neonatal HIE mouse model; format: in vivo; conditions: n=6, HIE untreated 141.7+56.6
Description: C57BL6 mice were subjected to complete unilateral carotid blockage using cauterizer at P10 followed by 45 min hypoxic exposure at 8% O2, and this was followed by daily oral gavage delivery of J147 in a range of doses or vehicle at P10-P14. Then animals were sacrificed and processed for TUNEL staining. In sham group, very few TUNEL+ cells are observed in dentate gyrus (DG, 4.7+4.1/each). […] For 10 μg/g/day group and 25 μg/g/day group, 42.2+23 (p<0.001) and 31.7+21.4 (p<0.001) cells are found in DG (One-way ANOVA; n=6).

[5] = system: neonatal hypoxic-ischemic brain injury in p10 C57BL6 mice; experiment: Open field test in HI mice; format: in vivo, mouse; conditions: 4 days post HI
Description: as §1, with “TTC staining: 24 h after HI injury, 2 mm coronal brain sections were immersed in 1% 2,3,5-Triphenyltetrazolium chloride (TTC) at 37° C. for 30 min. Images of individual sections were digitized and infarct area was measured with the ImageJ software. Injury volumes were calculated using [contralateral hemisphere volume-(ipsilateral hemisphere volume-lesion volume)]/contralateral hemisphere volume×100.” left out

[6] = system: neonatal hypoxic-ischemic brain injury in p10 C57BL6 mice; experiment: Rotarod test in HI mice; format: in vivo, mouse; conditions: 5 weeks after HI
Description: as §1, with “TTC staining: 24 h after HI injury, 2 mm coronal brain sections were immersed in 1% 2,3,5-Triphenyltetrazolium chloride (TTC) at 37° C. for 30 min. Images of individual sections were digitized and infarct area was measured with the ImageJ software. Injury volumes were calculated using [contralateral hemisphere volume-(ipsilateral hemisphere volume-lesion volume)]/contralateral hemisphere volume×100.” left out

[7] = system: neonatal hypoxic-ischemic brain injury in p10 C57BL6 mice; experiment: Y-maze spontaneous alternation test in HI mice; format: in vivo, mouse; conditions: 50 days after HI; p<0.001
Description: as §1, with “TTC staining: 24 h after HI injury, 2 mm coronal brain sections were immersed in 1% 2,3,5-Triphenyltetrazolium chloride (TTC) at 37° C. for 30 min. Images of individual sections were digitized and infarct area was measured with the ImageJ software. Injury volumes were calculated using [contralateral hemisphere volume-(ipsilateral hemisphere volume-lesion volume)]/contralateral hemisphere volume×100.” left out

[8] = system: neonatal hypoxic-ischemic brain injury in p10 C57BL6 mice; experiment: Neural precursor marker fluorescence staining in HI mice; format: in vivo, mouse
[9] = system: neonatal hypoxic-ischemia (HI) in mice; experiment: NeuN+ area and TUNEL+ cell count in hippocampus of HI mice
Description: Neonatal hypoxic-ischemia (HI) was performed at P10 and daily 10 μg/g J147 was gavage-fed from P10 to P14.

## [Mg+2] [Magnesium]
[1]
  Effect on post-surgical cognitive dysfunction: failed to reduce post-surgical cognitive dysfunction

## CCN(C)C(=O)Oc1cccc([C@H](C)N(C)C)c1 [Rivastigmine]
[1]; clinical investigation NCT00835159, terminated
  Safety in seriously ill patients after surgery: too dangerous
[1]
  Effect on post-surgical cognitive dysfunction: no efficacy was observed

## COc1cccc(/C=N/N(C(=O)C(F)(F)F)c2ccc(C)cc2C)c1 [J147]
[2]; 24 hours after HI injury, J147 10 mg/kg/day oral gavage, 10 mg/kg/day
  Area of brain injury / lesion size by TTC staining (FIG. 2): reduced lesion size; also recorded: reduced areal extent of injury; also recorded: significantly reduces the area of brain injury
[2]; one day of J147 treatment, 10 mg/kg/day oral gavage, 24 h after HI injury, p<0.001
  Infarct size as measured by TTC staining, reduction relative to HI controls: 48%
[3]; 50 days after hypoxia-ischemia injury, J147 10 mg/kg/day for 2 weeks, 10 mg/kg/day
  Ipsilateral hemisphere volume as percentage of contralateral hemisphere volume by MRI, area of brain injury (FIG. 3): reduced lesion size; also recorded: substantial reduction of effect compared with HI; also recorded: almost entirely reduces the area of brain injury
[3]; MRI measurements at 50 days
  MRI reduction in infarction volume, HIJ mice compared with untreated HI mice: ~50%
[3]; adult mice, two weeks of J147 treatment 10 mg/kg/day oral gavage, p<0.001
  MRI imaging reduction in lesion size: 88%
[4]; 0.5 μg/g/day oral gavage P10-P14, p>0.05
  TUNEL+ cells in dentate gyrus: 123.2+51.5 cells
[4]; 1 μg/g/day oral gavage P10-P14, p>0.05
  TUNEL+ cells in dentate gyrus: 107.8+42.7 cells
[4]; 5 μg/g/day oral gavage P10-P14, p<0.01
  TUNEL+ cells in dentate gyrus: 55+23.6 cells
[4]; 10 μg/g/day oral gavage P10-P14, p<0.001
  TUNEL+ cells in dentate gyrus: 42.2+23 cells
[4]; 25 μg/g/day oral gavage P10-P14, p<0.001
  TUNEL+ cells in dentate gyrus: 31.7+21.4 cells
[5]
  Performance in the open field test: significant improvement
[5]; J147 treatment group
  Open field test performance, improvement: about 25%
[6]
  Performance in the rotarod test: significant improvement
[6]; chronic, J147 treatment group
  Rotarod test performance, improvement: about 25%
[7]
  Y-maze spatial learning task, improvement compared to HI controls: 33%
[8]; at one week after injury
  Tbr2-positive cells: significant increase
[8]; one day and one week after injury
  Nestin-positive cells: increased
[9]; HI+J147, daily 10 μg/g gavage P10 to P14, SH 0.52, HI 0.32, p=0.0433
  NeuN+ area in hippocampus: 0.45 mm2/section
[9]; HI+J147, daily 10 μg/g gavage P10 to P14, SH 36.33, HI 372.67, p=0.0092
  TUNEL+ apoptotic cells in hippocampus: 208.17 /section
[9]; J147 treatment, summary
  Reduction in apoptotic cell death in the hippocampus: roughly 50%

## COc1cc2c(cc1OC)C(=O)C(CC1CCN(Cc3ccccc3)CC1)C2 (stereo not shown) [donepezil]
[1]; patients with cognitive decline one year after cardiac surgery
  Effect on the overall cognitive index: had no effect

## Cc1cccc([C@H](C)c2cnc[nH]2)c1C [Dexmedetomidine]
[1]
  Effect on post-surgical cognitive dysfunction: failed to show efficacy
